ChEMBL document CHEMBL1201862, “PubChem BioAssay data set” (2004)
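How tested: cells in 96-well plates exposed to compound for 48 hours at five concentrations. Here, GI50 denotes the concentration required for 50% inhibition of growth.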 Active and inactive are the calls of the source. Rule as the data show it: active = GI50 up to about 1.1 µM and inactive = higher.

What was measured:
Test in all cases: growth of human tumour cells (NCI), 48 h
A549 = tested on: A549
CAKI-1 = tested on: CAKI-1
CCRF-CEM = tested on: CCRF-CEM
COLO 205 = tested on: COLO 205
EKVX = tested on: EKVX
HOP-92 = tested on: HOP-92
HT-29 = tested on: HT-29
Hs-578T = tested on: Hs-578T
M14 = tested on: M14
MDA-MB-231 = tested on: MDA-MB-231
MDA-MB-435 = tested on: MDA-MB-435
Malme-3M = tested on: Malme-3M
OVCAR-5 = tested on: OVCAR-5
SF-539 = tested on: SF-539
SK-MEL-28 = tested on: SK-MEL-28
SNB-75 = tested on: SNB-75
SW-620 = tested on: SW-620
TK-10 = tested on: TK-10
A498 = tested on: A498

Row | SMILES | GI50 (A549) | GI50 (CAKI-1) | GI50 (CCRF-CEM) | GI50 (COLO 205) | GI50 (EKVX) | GI50 (HOP-92) | GI50 (HT-29) | GI50 (Hs-578T) | GI50 (M14) | GI50 (MDA-MB-231) | GI50 (MDA-MB-435) | GI50 (Malme-3M) | GI50 (OVCAR-5) | GI50 (SF-539) | GI50 (SK-MEL-28) | GI50 (SNB-75) | GI50 (SW-620) | GI50 (TK-10) | GI50 (A498)
1 | CC1(C)NC(C(=O)c2ccccc2)=[N+]([O-])C1(O)c1ccccc1 (stereo not given) | > 100 µM (inactive) | > 100 µM (inactive) | > 100 µM (inactive) | > 100 µM (inactive) | > 100 µM (inactive) | > 100 µM (inactive) | > 100 µM (inactive) | > 100 µM (inactive) | > 100 µM (inactive) | > 100 µM (inactive) | > 100 µM (inactive) | > 100 µM (inactive) | > 100 µM (inactive) | > 100 µM (inactive) | > 100 µM (inactive) | > 100 µM (inactive) | > 100 µM (inactive) | > 100 µM (inactive) | 
2 | Clc1ccc(-c2c(C3=NCCN3)nnn2-c2ccc(Cl)cc2)cc1 | 53.2 µM (inactive) | 33.5 µM (inactive) | 22.6 µM (inactive) | 12.6 µM (inactive) | 59.8 µM (inactive) | 18.2 µM (inactive) | 13.9 µM (inactive) |  | 17.1 µM (inactive) |  |  | 19.1 µM (inactive) | 33 µM (inactive) | 18.2 µM (inactive) | 25.1 µM (inactive) | 17.8 µM (inactive) | 25.9 µM (inactive) | 19.7 µM (inactive) | 17.4 µM (inactive)
3 | O=C(CC(=O)c1cccc([N+](=O)[O-])c1)C(=O)Nc1ccccc1 | > 100 µM (inactive) | > 100 µM (inactive) | > 100 µM (inactive) |  | > 100 µM (inactive) | > 100 µM (inactive) | > 100 µM (inactive) |  | > 100 µM (inactive) |  |  | > 100 µM (inactive) | > 100 µM (inactive) | > 100 µM (inactive) | > 100 µM (inactive) | > 100 µM (inactive) | > 100 µM (inactive) | > 100 µM (inactive) | > 100 µM (inactive)
4 | CC1=C(C(=O)Nc2ccccc2C)C(c2ccccc2O)C(C(=O)Nc2ccccc2C)=C(C)N1 | 33.7 µM (inactive) | 23.4 µM (inactive) | 24.6 µM (inactive) |  | 30.8 µM (inactive) | 51.4 µM (inactive) | 25.7 µM (inactive) |  | 18.2 µM (inactive) |  |  | 26.7 µM (inactive) | 30.8 µM (inactive) | 17.3 µM (inactive) | 28 µM (inactive) | 24.5 µM (inactive) | 33 µM (inactive) | 29.2 µM (inactive) | 21.4 µM (inactive)
5 | Cc1cccc(Nc2cnc(N)nc2N)c1 | > 100 µM (inactive) | > 100 µM (inactive) | > 100 µM (inactive) | > 100 µM (inactive) | > 100 µM (inactive) | > 100 µM (inactive) | > 100 µM (inactive) |  | > 100 µM (inactive) | > 100 µM (inactive) | > 100 µM (inactive) | > 100 µM (inactive) |  | > 100 µM (inactive) | > 100 µM (inactive) | 83 µM (inactive) | > 100 µM (inactive) | > 100 µM (inactive) | > 100 µM (inactive)
6 | Nc1ncnc2c1ncn2C1OC(CSC(F)(F)F)C(O)C1O (stereo not given) | > 100 µM (inactive) | > 100 µM (inactive) | > 100 µM (inactive) | > 100 µM (inactive) | > 100 µM (inactive) | > 100 µM (inactive) | > 100 µM (inactive) |  | > 100 µM (inactive) |  |  | > 100 µM (inactive) | > 100 µM (inactive) | > 100 µM (inactive) | > 100 µM (inactive) | > 100 µM (inactive) | > 100 µM (inactive) | > 100 µM (inactive) | > 100 µM (inactive)
7 | O=C(O)/C=C/c1ccc(O)c(O)c1 [CAFFEIC ACID] | > 100 µM (inactive) | > 100 µM (inactive) | > 57.5 µM (inactive) | > 100 µM (inactive) | > 100 µM (inactive) | > 100 µM (inactive) | > 100 µM (inactive) |  | > 100 µM (inactive) |  |  | > 100 µM (inactive) | > 100 µM (inactive) | > 100 µM (inactive) | > 100 µM (inactive) | > 24 µM (inactive) | > 43.3 µM (inactive) | > 100 µM (inactive) | > 100 µM (inactive)
8 | CCOC(=O)NC1C2CC(=O)OC(O2)C1OC(C)=O (stereo not given) | > 100 µM (inactive) | > 100 µM (inactive) | > 100 µM (inactive) | > 100 µM (inactive) | > 100 µM (inactive) | > 100 µM (inactive) | > 100 µM (inactive) |  | > 100 µM (inactive) |  |  | > 100 µM (inactive) | > 100 µM (inactive) | > 100 µM (inactive) | > 100 µM (inactive) | > 100 µM (inactive) | > 100 µM (inactive) | > 100 µM (inactive) | > 100 µM (inactive)
9 | [N-]=[N+]=NCC(O)Cn1cnc2c(NC(=O)c3ccccc3)ncnc21 (stereo not given) | > 100 µM (inactive) | > 100 µM (inactive) | > 100 µM (inactive) | 27.8 µM (inactive) | > 100 µM (inactive) | > 100 µM (inactive) | > 100 µM (inactive) |  | > 100 µM (inactive) |  |  | > 100 µM (inactive) | > 100 µM (inactive) | > 100 µM (inactive) | > 100 µM (inactive) | > 100 µM (inactive) | 43.8 µM (inactive) | > 100 µM (inactive) | > 100 µM (inactive)
10 | COc1cccc(-c2cc(O)c3cc4c(cc3n2)OCO4)c1 | 0.313 µM (active) | 0.0339 µM (active) | 0.0757 µM (active) | 0.132 µM (active) | 2.59 µM (inactive) | 18 µM (inactive) | 0.144 µM (active) |  | 0.0463 µM (active) |  |  | 0.0488 µM (active) | 0.251 µM (active) | 0.0603 µM (active) | > 53.1 µM (inactive) | 0.0424 µM (active) | 0.034 µM (active) | 0.662 µM (active) | 0.069 µM (active)
11 | O=C(CC(C(=O)c1ccoc1)c1ccco1)c1ccco1 (stereo not given) | 79.6 µM (inactive) | > 100 µM (inactive) | 24.2 µM (inactive) | > 100 µM (inactive) | > 100 µM (inactive) | > 100 µM (inactive) | > 100 µM (inactive) | > 100 µM (inactive) | > 100 µM (inactive) | 18.6 µM (inactive) | 30 µM (inactive) |  | > 100 µM (inactive) | > 100 µM (inactive) | 37.9 µM (inactive) | > 100 µM (inactive) | > 100 µM (inactive) | > 100 µM (inactive) | > 100 µM (inactive)
12 | O=C(CCc1cc(-c2ccccc2)[nH]c(=S)n1)Nc1ccccc1[N+](=O)[O-] | > 100 µM (inactive) | > 100 µM (inactive) | > 100 µM (inactive) | > 100 µM (inactive) | > 100 µM (inactive) | > 100 µM (inactive) | > 100 µM (inactive) |  | > 100 µM (inactive) |  |  | > 100 µM (inactive) | > 100 µM (inactive) | > 100 µM (inactive) | > 100 µM (inactive) | > 100 µM (inactive) | > 100 µM (inactive) | > 100 µM (inactive) | > 100 µM (inactive)
